Data reported in patent publication US9907760B2 (LIBRAGEN, priority 2010, dated 2018).
Marks after values point to notes of the source that are not given here.

Legend:
[1] = tested on: normal human fibroblasts; experiment: Hyaluronic acid production by normal human fibroblasts treated with supernatant of treated keratinocytes (HA-ELISA); type: cell-based; details: supernatant on fibroblasts 48 hrs
Description: Normal human dermal fibroblasts were cultured to confluence. Cells were treated for 48 hours with supernatants of normal human keratinocytes previously grown in the presence of the test products. The fibroblast supernatants, containing hyaluronic acid, were collected and assayed immediately. Hyaluronic acid was quantified with an ELISA microtiter plate. Protein content was determined for each well of the microtiter plate.
(§1) Primocultures of normal human keratinocytes (NHK) were obtained from cells isolated from skin specimens from plastic surgery.
(§2) NHK were seeded at a density of 130,000 cells/well in specific KSFM culture medium (Gibco®, Invitrogen) in a 24-well plate. The plate was placed in a humid incubator (37° C., 5% CO2) for 24 hours.
Primocultures of normal human fibroblasts (NHF) were obtained from cells isolated from skin specimens from plastic surgery.
NHF were seeded at a density of 90,000 cells/well in E-199 culture medium supplemented with 0.5% FCS (Gibco® Invitrogen) in a 24-well plate. The plate was placed in a humid incubator (37° C., 5% CO2) for 24 hours.
The two cell types—NHK and NHF—were plated 48 hours apart.
The different products at the respective concentrations (diluted in KSFM medium, 600 μl) were contacted with NHK cells for 48 hours. Untreated cells were used as the control condition. Two plates were used to separately test NAG, and NAG+vitamin A propionate, on the one hand, and NAG6P, and NAG6P+vitamin A propionate, on the other hand.
(§3) Each treatment condition was evaluated on three wells of NHK cells.
After 48 hours, a fraction of NHK cell supernatant (300 μl/well) was removed and transferred well for well into NHF cell supernatants (300 μl E-199/well−fresh medium without FCS).
This gave a final volume of 600 μl/well (50:50 ratio of KSFM/E-199 medium) which remained on the NHF cells for 48 hours.
After 48 hours of treatment, the NHF cell supernatant was collected and centrifuged.
Hyaluronic acid was assayed in the cell supernatants as described in example 1.
(§4) The assay was performed in duplicate for each well.
(§5) Optical densities (OD) measured on each sample were plotted on a graph (specific standard curve in the kit). The hyaluronic acid concentration was expressed in ng/ml.
(§6) The amount of hyaluronic acid released by the cells was determined for each well and for each treatment condition, relative to the cell content expressed as μg of protein. Thus, the final result was expressed as ng/ml of hyaluronic acid per μg of protein.
A mean value was calculated for wells treated with the same concentration of test product. This mean was compared with the mean of the control wells (Student t test−comparison of means−significant difference at 95% if p<0.05* and at 99% if p<0.01**).
(§7) The percent stimulation induced by the test products was determined by comparing the mean values of the control and treatment conditions: % Stimulation=(Treated−Control)/Control

[2] = tested on: normal human fibroblasts; experiment: Procollagen 1 production by normal human fibroblasts treated with supernatant of treated keratinocytes (EIA); type: cell-based; details: supernatant on fibroblasts 48 hrs
Description: This experiment was carried out according to the method described in example 3. Fibroblast supernatants, containing procollagen 1, were collected and assayed immediately for procollagen 1 by means of an EIA microtiter plate.
After 48 hours of treatment, NHF cell supernatants were collected and centrifuged.
Procollagen 1 was assayed in the cell supernatants by the method described in the Procollagen Type 1 C-peptide EIA kit (MK101, Takara). This is an EIA assay with spectrophotometric detection at 450 nm (Safire, Tecan).
Duplicate determinations were carried out for two wells whereas the third well was assayed only once.
Optical densities (OD) measured on each sample were plotted on a graph (specific standard curve in the kit). The procollagen 1 concentration was expressed in ng/ml.
As in example 3, the protein content was determined in the cell pellets of the supernatants for which procollagen 1 was assayed.
Thus, the final result was expressed as ng/ml of procollagen 1 per μg of protein. A mean value was calculated for wells treated with the same concentration of test product. This mean was compared with the mean of the control wells (Student t test−comparison of means, significant difference at 95% if p<0.05* and at 99% if p<0.01**).
The percent stimulation produced by the test products was determined by comparing the mean values of the control and treatment conditions: % Stimulation=(Treated−Control)/Control

[3] = tested on: patients with osteoarthritis; details: three-year trial, 212 patients with osteoarthritis, versus slight worsening in placebo group; cited from earlier work
[4] = tested on: normal human keratinocytes; experiment: Hyaluronic acid production by normal human keratinocytes (HA-ELISA of supernatant); type: cell-based; details: 1 μM
Description: Normal human keratinocytes were cultured to confluence. Cells were treated with the test products for 48 hours. The supernatants, containing hyaluronic acid, were collected and assayed immediately. Hyaluronic acid was quantified with an ELISA microtiter plate.
as §1, §2
The different products at the respective concentrations (diluted in KSFM medium, 600 μl) were contacted with the cells for 48 hours. Untreated cells were used as the control condition.
as §3
After 24 hours of treatment, an intermediate sample of […] of supernatant was removed from each well and the plate returned to the incubator (37° C., 5% CO2).
After 48 hours of treatment, the remaining supernatant (≈350 μA) was collected and centrifuged.
Cell supernatants were assayed according to the method described in the Hyaluronan Enzyme-Linked Immunosorbent Assay kit (HA-ELISA, Echelon Biosciences Inc.). This is an ELISA assay with spectrophotometric detection at 405 nm (Safire, Tecan).
as §4, §5, §6
A mean value was calculated for wells treated with the same concentration of test product. This mean was compared with the mean of the control wells (Student t test−comparison of means−significant difference at 95% if p<0.05* and at 99% if p<0.01*).
as §7
The vitamin A propionate was dissolved in DMSO.

[5] = tested on: normal human fibroblasts; experiment: Proliferation of normal human fibroblasts treated with supernatant of treated keratinocytes (Cell Proliferation ELISA, BrdU); type: cell-based; details: 1 μM on keratinocytes 48 hrs, supernatant on fibroblasts 48 hrs
Description: This experiment evaluated the proliferation of normal human fibroblasts (dermal primocultures) after 48 hours of treatment with supernatant transferred from human keratinocytes.
The “Cell Proliferation ELISA, BrdU” test quantifies cell proliferation by measuring incorporation of bromodeoxyuridine (BrdU) during DNA synthesis followed by luminescence detection.
Cells were placed in the presence of the treatment for a specified time (incubator at 37° C., 5% CO2). The pyrimidine analogue 5-bromo-2′-deoxyuridine (BrdU) was then added and the cells were further incubated (37° C., 5% CO2) for a minimum of 2 hours, during which time BrdU is incorporated in place of thymidine into the DNA of proliferating cells.
The culture medium was removed, then the cells were fixed and the DNA denatured at the same time (antibody accessibility). An anti-BrdU-POD (peroxidase) antibody was added; this antibody binds to BrdU in newly synthesized DNA. The immune complex was then detected by addition of luminol substrate with measurement of luminescence (Genios, Tecan).
NHF were seeded at a density of 5,000 cells/well in E-199 culture medium (Gibco® Invitrogen) in a 96-well Optilux white plate (BD Falcon 353947). The plate was placed in a humid incubator (37° C., 5% CO2) for 24 hours.
The different products at the respective concentrations (diluted in KSFM culture medium, 600 μl) were contacted with NHK cells for 48 hours. Control cells were left untreated. Each treatment conditions was evaluated on three wells of NHK cells.
After 48 hours, a fraction of the NHK cell supernatant was removed. Each sample of supernatant (2 times 100 μl) from a well on the NHK plate (24 wells) was transferred to two wells in the NHF plate already containing 100 μl of E-199 medium per well. […]
Cell proliferation was quantified by the method described in the “Cell Proliferation ELISA, BrdU” kit (Roche Applied Science No. 11669915001). This is an immunological assay with luminescence detection (Genios, Tecan).
The means of the luminescence values (RLU/s) of six wells with the same treatment condition were determined. […] Proliferation of treated cells was expressed as a percentage of the control(untreated cells−100%)(OD treated/OD control×100).

[6] = 5 mM on keratinocytes 48 hrs, vs Control
[7] = 10 mM on keratinocytes 48 hrs, vs Control
[8] = 1 μM on keratinocytes 48 hrs, NAG6P plate (Table 6)
[9] = 1 μM on keratinocytes 48 hrs, NAG plate (Table 5)
[10] = 1 μM on keratinocytes 48 hrs, NAG6P plate (Table 8)
[11] = 1 μM on keratinocytes 48 hrs, NAG plate (Table 7)

Compound: CC(=O)N[C@H]1C(O)O[C@H](CO)[C@@H](O)[C@@H]1O (stereo partly shown) [NAG, N-acetylglucosamine]
- Hyaluronic acid ([1]; 5 mM on keratinocytes 48 hrs): 4277.6 ± 488 ng/mL
- Hyaluronic acid (ng/ml/μg prot.) ([1]; 5 mM on keratinocytes 48 hrs): 358.9 ± 81.8 ng/ml/μg prot.
- % stimulation of hyaluronic acid synthesis [1, 6]: −17%
- Hyaluronic acid ([1]; 10 mM on keratinocytes 48 hrs): 4056.1 ± 315.5 ng/mL
- Hyaluronic acid (ng/ml/μg prot.) ([1]; 10 mM on keratinocytes 48 hrs): 258.8 ± 8.1 ng/ml/μg prot.
- % stimulation of hyaluronic acid synthesis [1, 7]: −40%**
- Procollagen 1 ([2]; 5 mM on keratinocytes 48 hrs): 685.9 ± 38.6 ng/mL
- Procollagen 1 (ng/ml/μg prot.) ([2]; 5 mM on keratinocytes 48 hrs): 57.3 ± 10.5 ng/ml/μg prot.
- % stimulation (procollagen 1) [2, 6]: −37%*
- Procollagen 1 ([2]; 10 mM on keratinocytes 48 hrs): 700.9 ± 32.7 ng/mL
- Procollagen 1 (ng/ml/μg prot.) ([2]; 10 mM on keratinocytes 48 hrs): 44.9 ± 1.3 ng/ml/μg prot.
- % stimulation (procollagen 1) [2, 7]: −51%**

Compound: N[C@H]1C(O)O[C@H](CO)[C@@H](O)[C@@H]1O (stereo partly drawn) [glucosamine, D-glucosamine]
- improvement in symptoms [3]: 20-25%

Compound: CCC(=O)OC/C=C(C)/C=C/C=C(C)/C=C/C1=C(C)CCCC1(C)C [Vit. A propionate, vitamin A propionate]
- % stimulation of hyaluronic acid synthesis ([4]; 24 hrs): 34%*
- Hyaluronic acid ([4]; 24 hrs): 1056 ± 186.5 ng/mL
- % stimulation of hyaluronic acid synthesis ([4]; 24 hrs, listed as vitamin A propionate): 34%
- Hyaluronic acid ([4]; 48 hrs): 1944.8 ± 393.2 ng/mL
- Hyaluronic acid (ng/ml/μg prot.) ([4]; 48 hrs): 137.1 ± 32.2 ng/ml/μg prot.
- % stimulation of hyaluronic acid synthesis ([4]; 48 hrs, vs DMSO control): 105%*
- % stimulation of hyaluronic acid synthesis ([4]; 48 hrs, vs DMSO control, listed as vitamin A propionate): 105%
- Hyaluronic acid [1, 8]: 3358.8 ± 615.3 ng/mL
- Hyaluronic acid (ng/ml/μg prot.) [1, 8]: 389.2 ± 108.3 ng/ml/μg prot.
- % stimulation of hyaluronic acid synthesis ([1]; 1 μM on keratinocytes 48 hrs, NAG6P plate (Table 6), vs DMSO control): 7%
- Hyaluronic acid [1, 9]: 3645.6 ± 667.8 ng/mL
- Hyaluronic acid (ng/ml/μg prot.) [1, 9]: 316.6 ± 68 ng/ml/μg prot.
- % stimulation of hyaluronic acid synthesis ([1]; 1 μM on keratinocytes 48 hrs, NAG plate (Table 5), vs DMSO control): −18%
- Procollagen 1 [2, 10]: 704.4 ± 38.6 ng/mL
- Procollagen 1 (ng/ml/μg prot.) [2, 10]: 81.9 ± 13.0 ng/ml/μg prot.
- % stimulation (procollagen 1) ([2]; 1 μM on keratinocytes 48 hrs, NAG6P plate (Table 8), vs DMSO control): 5%
- Procollagen 1 [2, 11]: 706.1 ± 73.8 ng/mL
- Procollagen 1 (ng/ml/μg prot.) [2, 11]: 64.3 ± 20.1 ng/ml/μg prot.
- % stimulation (procollagen 1) ([2]; 1 μM on keratinocytes 48 hrs, NAG plate (Table 7), vs DMSO control): 15%
- RLU [5]: 4640 ± 267 RLU
- % Proliferation ([5]; DMSO control = 100%): 109%**
